From publication PMC3068151 (PLoS ONE, 2011)

Tests used:
IGFR1β = target: T1, IGFR1β (Homo sapiens, UniProt P08069); experiment: IGFR1β activity, alpha Technology; format: cell-based; conditions: 100 µM, 5 nM IGF1
T1 construct: in HepG2 or A431 cells, respectively; endogenous in cells; host or cells: A431 according to b24; HepG2 according to the order in the legend b55
Method: Cells were stimulated with 5 nM IGF1 or 100 nM insulin for 10 minutes, lysed and a fluorescence acceptor (alphaLISA protein A beads coated with anti-phospho-IRKβ or -IGFR1β) added for 2 hours. A fluorescence donor (streptavidin coupled-beads) coated with an antibody towards IRKβ or IGFR1β was incubated for 2 hours and the signal was measured at λex = 680 nm and λem = 500 nm and 600 nm using a microplate reader (EnVision, Perkin Elmer, Waltham, MA, USA).
These assays were performed at CEREP (Celle L'Evescault, France).
(§1) A, B) EGFR phosphorylation was induced by 30 ng/ml and 10 ng/ml EGF on PC3 (A) and HT29 (B) cells, respectively. […] Data are the means of two experiments ± st. err.

EGFR = EGFR (Homo sapiens, UniProt P00533); experiment: Phosphorylated-EGFR sandwich ELISA in HT29 cells; format: cell-based; conditions: 100 µM, 10 ng/ml EGF
Sequence of EGFR (P00533 25-1210): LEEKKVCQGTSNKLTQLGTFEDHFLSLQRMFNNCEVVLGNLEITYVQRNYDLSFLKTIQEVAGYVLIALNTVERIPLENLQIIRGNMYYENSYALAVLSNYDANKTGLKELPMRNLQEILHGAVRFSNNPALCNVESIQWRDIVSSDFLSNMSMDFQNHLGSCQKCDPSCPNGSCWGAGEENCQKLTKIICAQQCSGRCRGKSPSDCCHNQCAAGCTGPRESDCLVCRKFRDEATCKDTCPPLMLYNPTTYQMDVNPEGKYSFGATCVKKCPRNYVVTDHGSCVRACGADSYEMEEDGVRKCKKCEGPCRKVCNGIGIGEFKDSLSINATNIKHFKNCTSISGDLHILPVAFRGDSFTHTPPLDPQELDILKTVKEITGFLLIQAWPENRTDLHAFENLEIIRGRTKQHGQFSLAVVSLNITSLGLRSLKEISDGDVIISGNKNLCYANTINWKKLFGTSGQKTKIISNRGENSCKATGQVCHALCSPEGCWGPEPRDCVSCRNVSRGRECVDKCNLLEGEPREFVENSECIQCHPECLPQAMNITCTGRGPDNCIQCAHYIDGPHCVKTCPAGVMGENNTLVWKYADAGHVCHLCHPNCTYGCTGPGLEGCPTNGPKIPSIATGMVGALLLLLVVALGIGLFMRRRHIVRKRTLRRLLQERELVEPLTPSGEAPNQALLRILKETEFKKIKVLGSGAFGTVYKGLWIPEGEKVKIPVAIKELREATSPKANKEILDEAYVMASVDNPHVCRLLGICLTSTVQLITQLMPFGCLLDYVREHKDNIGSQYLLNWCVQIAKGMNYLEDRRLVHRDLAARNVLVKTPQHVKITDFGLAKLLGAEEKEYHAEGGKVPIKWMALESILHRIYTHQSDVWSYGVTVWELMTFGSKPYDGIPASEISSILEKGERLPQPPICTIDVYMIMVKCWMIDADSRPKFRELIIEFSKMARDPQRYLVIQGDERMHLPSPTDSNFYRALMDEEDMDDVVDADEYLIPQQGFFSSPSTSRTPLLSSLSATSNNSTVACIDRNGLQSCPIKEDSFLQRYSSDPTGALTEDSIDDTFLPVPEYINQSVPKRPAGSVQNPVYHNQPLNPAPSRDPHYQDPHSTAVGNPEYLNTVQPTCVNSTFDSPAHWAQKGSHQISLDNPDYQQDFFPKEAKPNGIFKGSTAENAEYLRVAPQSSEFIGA
Method: Cells were seeded in 12-well plates at concentration of 10^5cells/ml in complete medium until they reached ∼40% confluence and serum starved overnight. The day after cells were treated with compounds under study, vehicle or standard drug, stimulated with the proper agonist, rinsed with sterile PBS and solubilized in lysis buffer. The lysates were resuspended and rocked at 4°C for 30 minutes and then centrifuged at 14000 xg for 5 minutes. The protein content of supernatant was measured with BCA protein assay kit (Thermo scientific), standardized to 200 µg/ml and transferred into a clean test tube ready to be used.
EphA2-, EphB4- and EGFR-phosphorylation were measured in cell lysates using DuoSet®IC Sandwich ELISA (RnD Systems, #DYC4056, #DYC4057 and #DYC1095, respectively) following manufacturer's protocol. […] The day after wells were washed and blocked for 1 hour at room temperature. After that, wells were washed and 100 µl/well of lysates were added at room temperature for 2 hours; wells were washed and incubated with Detection Antibody at room temperature for 2 hours.
as §1

PC3 cells = experiment: PC3 cell rounding assay; format: cell-based, human; conditions: for inhibition of ephrinA1-Fc induced PC3 cell rounding: 0.5 µg/ml ephrinA1-Fc, 30 minutes
Method: PC3 cells were grown on 12-well culture plates and starved overnight in Ham-F12 medium with 0.5% FBS. DMSO (final concentration 0.25%) or compounds were incubated for 20 min, before stimulation with 0.5 µg/ml ephrinA1-Fc or Fc for 30 minutes. During this time cells were observed and pictures were taken from the same field, before and after incubation, under a microscope (Leica, DM IL). Cell rounding was evaluated using ImageJ program.
Cell images were collected from the same field at time 0 and 30 minutes using a digital camera mounted on a Leica DM IL microscope. […] Cells, which rounded their shape and having an area less than 20% of the initial value, were scored as retracting. Data are the means of at least three independent experiments ± st. err. One-way ANOVA followed by Dunnet's post test was performed comparing ephrinA1-Fc+DMSO to all other columns. *, p<0.05, **,p<0.01.

T1 sequence (P08069 741-1367 limits assumed): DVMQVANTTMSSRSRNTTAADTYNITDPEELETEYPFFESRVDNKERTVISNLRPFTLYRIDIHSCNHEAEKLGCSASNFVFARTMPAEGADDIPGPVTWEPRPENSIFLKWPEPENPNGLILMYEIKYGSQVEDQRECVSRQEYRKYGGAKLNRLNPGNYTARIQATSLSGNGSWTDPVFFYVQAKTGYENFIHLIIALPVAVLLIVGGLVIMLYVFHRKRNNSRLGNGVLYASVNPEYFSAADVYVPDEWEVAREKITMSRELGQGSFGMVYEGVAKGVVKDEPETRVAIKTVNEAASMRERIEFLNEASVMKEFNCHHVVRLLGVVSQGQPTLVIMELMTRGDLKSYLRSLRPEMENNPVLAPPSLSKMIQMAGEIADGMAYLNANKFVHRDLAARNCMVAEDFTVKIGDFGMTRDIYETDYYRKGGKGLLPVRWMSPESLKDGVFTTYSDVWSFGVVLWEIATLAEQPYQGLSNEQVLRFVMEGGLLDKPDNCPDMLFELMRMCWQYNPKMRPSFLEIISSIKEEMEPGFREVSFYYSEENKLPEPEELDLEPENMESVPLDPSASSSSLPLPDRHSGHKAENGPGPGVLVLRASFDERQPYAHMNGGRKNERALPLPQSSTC
T1 sequence (P08069 31-736 partner limits assumed): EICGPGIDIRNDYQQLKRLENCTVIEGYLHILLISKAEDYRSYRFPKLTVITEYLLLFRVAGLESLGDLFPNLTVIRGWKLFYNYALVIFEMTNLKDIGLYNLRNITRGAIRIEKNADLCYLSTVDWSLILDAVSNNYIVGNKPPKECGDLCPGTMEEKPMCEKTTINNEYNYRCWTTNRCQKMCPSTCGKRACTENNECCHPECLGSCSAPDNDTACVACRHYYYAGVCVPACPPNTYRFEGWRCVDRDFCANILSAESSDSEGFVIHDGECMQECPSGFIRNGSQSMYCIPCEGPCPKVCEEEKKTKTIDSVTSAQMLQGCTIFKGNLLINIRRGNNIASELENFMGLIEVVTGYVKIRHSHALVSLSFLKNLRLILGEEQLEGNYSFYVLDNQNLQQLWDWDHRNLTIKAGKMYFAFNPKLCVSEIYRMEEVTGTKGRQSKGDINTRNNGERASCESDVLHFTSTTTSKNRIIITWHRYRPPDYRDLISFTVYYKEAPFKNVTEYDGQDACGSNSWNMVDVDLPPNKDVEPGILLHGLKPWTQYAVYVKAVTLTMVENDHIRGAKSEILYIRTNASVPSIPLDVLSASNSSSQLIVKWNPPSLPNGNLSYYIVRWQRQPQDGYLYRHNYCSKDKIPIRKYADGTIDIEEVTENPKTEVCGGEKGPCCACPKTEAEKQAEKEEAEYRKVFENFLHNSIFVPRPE

C[C@H](CCC(=O)O)[C@H]1CC[C@H]2[C@@H]3CC[C@@H]4C[C@H](O)CC[C@]4(C)[C@H]3CC[C@]12C [LCA, lithocholic acid]
effect on IGFR1β activity as agonist or antagonist (IGFR1β): failed to affect activity | effect on EGF-induced EGFR phosphorylation (EGFR): completely inactive | inhibition of ephrinA1-Fc induced PC3 cell rounding (PC3 cells; 10 µM): inactive | inhibition of ephrinA1-Fc induced PC3 cell rounding (PC3 cells; 100 µM): blocked cell rounding | changes in PC3 cell morphology by compound alone (PC3 cells; incubated with Fc for 30 minutes): Neither DMSO 0.25% nor LCA alone induced changes in cell morphology
